Test system: mouse long-term hematopoietic stem cells
Assay: Reproducibility and concentration dependence test: 1-week culture of sorted Hoxb5-tri-mCherry mouse long-term hematopoietic stem cells, flow cytometry
Type: cell-based
Details: day 7 of culture, n=2
Description: Mice with insertion of a nucleic acid sequence containing three copies of a gene encoding the fluorescent protein mCherry to the C terminus of the mouse endogenous HoxB5 gene (Hoxb5-tri-mCherry) were used (triple-mCherry Hoxb5 knock-in mice; Non Patent Literature 1). The mice were housed under environmental conditions such that the room temperature and the humidity were 20 to 26° C. and 40 to 70%, respectively, under light for 12 hours and under dark for 12 hours (illumination: 8:00 a.m. to 8:00 p.m.).
Bone marrow cells were collected from the tibia, femur, humerus, and pelvis in each side of each of the mice, and gathered in a mortar. A buffer obtained by adding thermally deactivated bovine serum (manufactured by Gibco) at a final concentration of 2% and EDTA at a final concentration of 2 mM to Ca^2+-free and Mg^2+-free PBS was added, and the resultant was broken with a pestle to obtain a cell population including hematopoietic stem cells.
First, the thus-obtained cell population including hematopoietic stem cells was passed through strainers (meshes) of 100 μm, 70 μm, and 40 μm. The cell population was stained with an APC-binding anti-c-Kit (2B8) and fractionated with anti-APC magnetic beads and an LS column (both manufactured by Miltenyi Biotec) to obtain a cell population enriched with hematopoietic stem cells and progenitor cells.
Subsequently, cells being c-Kit-positive were stained with antibodies for the following cell surface markers.
Staining with the antibodies was performed at 4° C., and the cells were incubated for 30 minutes. For staining with the CD34 antibody, the cells were incubated for 90 minutes. Dead cell staining was performed with SYTOX Red Dead Cell Stain (manufactured by Life Technologies) in accordance with a method recommended by the manufacturer.
Flow cytometry analysis and cell classification (cell sorting) were performed with a FACS Aria II cell sorter (manufactured by BD Biosciences), wherein Lineage-negative, c-Kit-positive, Sca-1-positive, Flk2-negative, CD34-negative or weakly CD34-positive, CD150-positive, and mCherry-positive fractions were regarded as long-term hematopoietic stem cells, and analysis was performed with the software FlowJo (manufactured by Tree Star, Inc.).
The cells after classification were seeded in a 96-well plate. A cell culture medium was prepared by adding Stem Cell Factor (SCF, manufactured by PeproTech, Inc.) and Thrombopoietin (TPO, manufactured by PeproTech, Inc.) to StemSpan SFEM culture medium (manufactured by […] Technologies Inc.) and added in advance to a cell culture 96-well plate (manufactured by BD Biosciences) at 100 μL/well, and the cells sorted with the FACS Aria II cell sorter (BD Biosciences) were then seeded at 10 cells/well.
[…] Thereafter, the cells were cultured in a CO2 incubator under conditions of 37° C. and 5% CO2 for 1 week.
After culture, the cells were stained with the antibodies for the surface markers c-Kit and Sca-1, Ter-119, B220, CD3, CD4, CD8a, Gr-1, and CD11b, and the ratio and post-growth cell count of a KLS fraction (c-Kit^+, Lin^−, Sca-1^+) or an mCherry-positive fraction given with use of a FACS Aria II cell sorter were analyzed by using FlowJo (BD Biosciences). The mCherry-positive fraction is a cell fraction expressing the Hoxb5 gene, and the KLS fraction is a cell fraction being c-Kit-positive, Lin-negative, and Sca-1-positive, and includes hematopoietic stem cells and multipotent progenitor cells as main components. […]

Structure (SMILES) | KLS-positive rate (Table 4, compound 0.1 μM) | Viable cell count (Table 4, compound 0.1 μM) | mCherry-positive rate (Table 4, compound 0.1 μM) | KLS-positive rate (Table 4, compound 0.3 μM) | Viable cell count (Table 4, compound 0.3 μM) | mCherry-positive rate (Table 4, compound 0.3 μM) | KLS-positive rate (Table 4, compound 1 μM) | Viable cell count (Table 4, compound 1 μM) | mCherry-positive rate (Table 4, compound 1 μM) | KLS-positive rate (Table 4, compound 3 μM) | Viable cell count (Table 4, compound 3 μM) | mCherry-positive rate (Table 4, compound 3 μM) | KLS-positive rate (Table 4, compound 10 μM) | Viable cell count (Table 4, compound 10 μM) | mCherry-positive rate (Table 4, compound 10 μM) | other results
C[C@H]1[C@@H](O)O[C@@H]2O[C@@]3(C)CC[C@H]4[C@H](C)CC[C@@H]1[C@@]24OO3 [Example 1-29, artenimol, reference compound] | 19.4% | 469.5 cell | 13.3% | 13.7% | 215.0 cell | 6.0% | 11.3% | 248.0 cell | 3.9% | 80.0% | 4.5 cell | 100.0% | 50.0% | 0.5 cell | 50.0% | KLS-positive rate (Table 3, compound 0.1 μM): 8.92%; Viable cell count (Table 3, compound 0.1 μM): 1563 cell; mCherry-positive rate (Table 3, compound 0.1 μM): 16.9%; KLS-positive rate (Table 3, compound 0.3 μM): 18%; Viable cell count (Table 3, compound 0.3 μM): 2268 cell; mCherry-positive rate (Table 3, compound 0.3 μM): 42.4%; KLS-positive rate (Table 3, compound 1 μM): 20.05%; Viable cell count (Table 3, compound 1 μM): 666.5 cell; mCherry-positive rate (Table 3, compound 1 μM): 84.8%; KLS-positive rate (Table 3, compound 3 μM): 0%; Viable cell count (Table 3, compound 3 μM): 0 cell; mCherry-positive rate (Table 3, compound 3 μM): 0%; KLS-positive rate (Table 3, compound 10 μM): 0%; Viable cell count (Table 3, compound 10 μM): 0 cell; mCherry-positive rate (Table 3, compound 10 μM): 0%
CC1=CO[C@@H]2O[C@@]3(C)CC[C@H]4[C@H](C)CC[C@@H]1[C@@]24OO3 [Example 1-28, (3R,5aS,6R,8aS,12R,12aR)-3,6,9-trimethyl-3,4,5,5a,6,7,8,8a-octahydro-12H-3,12-epoxypyrano[4,3-j][1,2]benzodioxepine] | 21.5% | 275.5 cell | 12.9% | 13.5% | 305.0 cell | 15.0% | 10.5% | 522.0 cell | 35.5% | 16.5% | 283.0 cell | 80.3% | 41.2% | 138.0 cell | 96.4% | –
C[C@H]1[C@H](CN)O[C@@H]2O[C@@]3(C)CC[C@H]4[C@H](C)CC[C@@H]1[C@@]24OO3 [Example 1-18, 1-[(3R,5aS,6R,8aS,9R,10R,12R,12aR)-3,6,9-Trimethyldecahydro-12H-3,12-epoxypyrano[4,3-j][1,2]benzodioxepin-10-yl]methanamine] | 10.9% | 405.0 cell | 23.5% | 16.7% | 191.0 cell | 15.4% | 22.4% | 162.0 cell | 19.2% | 30.9% | 154.0 cell | 80.5% | 49.6% | 72.5 cell | 98.6% | –
C[C@H]1[C@@H](OCC(F)(F)F)O[C@@H]2O[C@@]3(C)CC[C@H]4[C@H](C)CC[C@@H]1[C@@]24OO3 [Example 1-22, (3R,5aS,6R,8aS,9R,10S,12R,12aR)-3,6,9-Trimethyl-10-(2,2,2-trifluoroethoxy)decahydro-12H-3,12-epoxypyrano[4,3-j][1,2]benzodioxepine] | 26.7% | 216.0 cell | 90.9% | 87.0% | 12.5 cell | 100.0% | 0.0% | 0.5 cell | 0.0% | 50.0% | 0.5 cell | 50.0% | 0.0% | 0.5 cell | 0.0% | –
C[C@H]1[C@@H](OCc2ccccc2)O[C@@H]2O[C@@]3(C)CC[C@H]4[C@H](C)CC[C@@H]1[C@@]24OO3 [Example 1-24, (3R,5aS,6R,8aS,9R,10S,12R,12aR)-10-(benzyloxy)-3,6,9-trimethyldecahydro-12H-3,12-epoxypyrano[4,3-j][1,2]benzodioxepine] | 73.6% | 18.0 cell | 94.1% | 0.0% | 0.5 cell | 50.0% | 0.0% | 0.5 cell | 50.0% | 0.0% | 0.0 cell | 0.0% | 0.0% | 0.5 cell | 0.0% | –
C[C@H]1[C@H](OC(=O)CCC(=O)O)O[C@@H]2O[C@@]3(C)CC[C@H]4[C@H](C)CC[C@@H]1[C@@]24OO3 [Example 1-32, artesunate, reference compound] | 21.0% | 597.5 cell | 9.4% | 12.4% | 355.5 cell | 6.0% | 90.6% | 9.0 cell | 100.0% | 21.2% | – | 53.3% | 0.0% | 1.0 cell | 25.0% | KLS-positive rate (Table 3, compound 0.1 μM): 36.3%; Viable cell count (Table 3, compound 0.1 μM): 1065.5 cell; mCherry-positive rate (Table 3, compound 0.1 μM): 23.59%; KLS-positive rate (Table 3, compound 0.3 μM): 46.4%; Viable cell count (Table 3, compound 0.3 μM): 540 cell; mCherry-positive rate (Table 3, compound 0.3 μM): 35.1%; KLS-positive rate (Table 3, compound 1 μM): 45.3%; Viable cell count (Table 3, compound 1 μM): 266 cell; mCherry-positive rate (Table 3, compound 1 μM): 91.2%; KLS-positive rate (Table 3, compound 3 μM): 0%; Viable cell count (Table 3, compound 3 μM): 0.5 cell; mCherry-positive rate (Table 3, compound 3 μM): 50%; KLS-positive rate (Table 3, compound 10 μM): 0%; Viable cell count (Table 3, compound 10 μM): 0.5 cell; mCherry-positive rate (Table 3, compound 10 μM): 0%
CC(=O)OCCO[C@@H]1O[C@@H]2O[C@@]3(C)CC[C@H]4[C@H](C)CC[C@@H]([C@H]1C)[C@@]24OO3 [Example 1-27, 2-{[(3R,5aS,6R,8aS,9R,10R,12R,12aR)-3,6,9-Trimethyldecahydro-12H-3,12-epoxypyrano[4,3-j][1,2]benzodioxepin-10-yl]oxy}ethyl acetate] | 45.4% | 122.0 cell | 44.3% | 75.0% | 14.5 cell | 94.7% | 100.0% | 6.0 cell | 100.0% | 90.0% | 6.0 cell | 100.0% | 49.8% | 17.5 cell | 100.0% | –
C[C@H]1[C@@H](C(N)=O)O[C@@H]2O[C@@]3(C)CC[C@H]4[C@H](C)CC[C@@H]1[C@@]24OO3 [Example 1-15, (3R,5aS,6R,8aS,9R,10S,12R,12aR)-3,6,9-Trimethyldecahydro-12H-3,12-epoxypyrano[4,3-j][1,2]benzodioxepine-10-carboxamide] | 6.8% | 379.0 cell | 7.1% | 13.0% | 540.0 cell | 13.3% | 17.9% | 258.0 cell | 47.3% | 40.0% | 111.0 cell | 87.1% | 54.9% | 42.5 cell | 97.6% | –

— patent US20230094952A1, “Method for Culturing Hematopoietic Stem Cells” (Sumitomo Pharma Co., Ltd., priority 2019, published 2023)
